The target of test [1] is T1, μ opioid receptor (Rattus norvegicus, UniProt P33535).
T1 construct: from tissue; host or cells: rat brain (without cerebellum) membranes, Sprague-Dawley
In words: μ opioid receptor binding assay, displacement of [3H]DAMGO from rat brain membranes. The source says: (§1) In the case of κ-ligands guinea pig brain homogenates were used, since the relative proportion of κ-binding sites is higher in guinea pig brain than in rat brain. The experimental procedure being used in our laboratory represents a modified version of the binding assay described by Pastemak et al. (Mol. Pharmacol. 11,340-351, (1975)). Male Sprague-Dawley rats (300-350 g) from the Canadian Breeding Laboratories were decapitated and after removal of the cerebellum the brains were homogenized in 30 volumes of ice-cold standard buffer (50 mM Tris-HCl, pH 7.7). After centrifugation at 30,000×g for 30 min at 4° C. the membranes were reconstituted in the original volume of standard buffer and incubated for 30 min at 37° C. (to release bound endogenous ligands). […] The incubation was terminated by filtration through Whatman GF/B filters under vacuum at 4° C. Following two washings with 5 ml portions of ice-cold standard buffer the filters were transferred to scintillation vials and treated with 1 ml Protosol (New England Nuclear) for 30 min prior to the addition of 0.5 ml acetic acid and 10 ml Aquasol (New England Nuclear). After shaking for 30 min the vials were counted at an efficiency of 40-45%. All experiments were performed in duplicates and repeated at least three times. […] Values of half-maximal inhibition (IC50) of specific binding were obtained graphically from semilogarithmic plots.

Test [2] deals with T2, δ opioid receptor (Rattus norvegicus, UniProt P33533).
T2 construct: from tissue; host or cells: rat brain (without cerebellum) membranes, Sprague-Dawley
Nature of the test: δ opioid receptor binding assay, displacement of δ-selective radioligand from rat brain membranes. To be noted: for Ki^μ /Ki^δ (δ-selectivity): ratio of μ and δ binding constants.
Description: as §1

The target in test [3] is T3, μ opioid receptors (Cavia porcellus, UniProt P97266). Nature of the test: GPI assay: inhibition of electrically evoked contractions of the guinea pig ileum. To be noted: read-out: IC50 (μ agonist potency) in the GPI assay. An excerpt:
In the GPI assay the opioid effect is primarily mediated by μ opioid receptors, whereas in the MVD assay the inhibition of the contractions is mostly due to interaction with δ opioid receptors.

In test [4] the target is T4, δ opioid receptors (Mus musculus, UniProt P32300).
T4 construct: electrically evoked contractions of the mouse vas deferens (MVD); from tissue; host or cells: isolated mouse vas deferens
Nature of the test: MVD assay: antagonism of δ agonist inhibition of electrically evoked contractions of the mouse vas deferens. To be noted: comparison with the patent's best compounds. An excerpt: Biosassys based on inhibition of electrically evoked contractions of the mouse vas deferens (MVD) and of the guinea pig ileum (GPI). In the GPI assay the opioid effect is primarily mediated by μ opioid receptors, whereas in the MVD assay the inhibition of the contractions is mostly due to interaction with δ opioid receptors. Antagonist potencies in these assays are expressed as so-called Ke -values (H. W. Kosterlitz & A. J. Watt, Br. J. Pharmacol. 33, 266-276 (1968)).
The GPI and MVD bioassays were carried out as reported in P. W. Schiller et al Biochem. Biophys. Res. Commun 85, 1332-1338 (1978) and J. DiMaio et al, J. Med. Chem 25 1432-1438 (1982). A log dose-response curve was determind with [Leu^5 ]enkephalin as standard for each ileum and vas preparation, and IC50 values of the compounds being tested were normalized according to A. A Waterfield et al Eur. J. Pharmacod 58, 11-18 (1979). Ke values for the TIPP-related antagonists were determind from the ratio of IC50 values (DR) obtained in the presence and absence of a fixed antagonist concentration (a) (Ke =a/(DR-1) H. W. Kosterlitz & A. J. Watt, Br. J. Pharmacol. 33, 266-276 (1968). These determinations were made with the MVD assay, using three different δ -selective agonists ([Leu^5 ] enkephalin, DPDPE and [D-Ala^2 ]deltorphin I.

Test [5] has as its target T3, μ opioid receptors. Particulars: literature value, Portoghese J. Med. Chem. 34, 1757 (1991); cited from earlier work.

Peptide text beside a SMILES is read from it.

T1 sequence (P33535 whole entry): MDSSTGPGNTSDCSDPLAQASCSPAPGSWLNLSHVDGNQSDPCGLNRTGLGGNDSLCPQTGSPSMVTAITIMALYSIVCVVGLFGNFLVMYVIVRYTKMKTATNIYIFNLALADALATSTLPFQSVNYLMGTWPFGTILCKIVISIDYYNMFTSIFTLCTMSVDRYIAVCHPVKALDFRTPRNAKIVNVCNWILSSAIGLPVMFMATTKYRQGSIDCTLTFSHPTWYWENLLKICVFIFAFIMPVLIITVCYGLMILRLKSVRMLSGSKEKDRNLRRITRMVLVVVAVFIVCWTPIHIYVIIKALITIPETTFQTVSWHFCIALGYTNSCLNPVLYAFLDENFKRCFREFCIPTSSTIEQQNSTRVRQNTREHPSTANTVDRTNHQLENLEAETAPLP
T2 sequence (P33533 whole entry): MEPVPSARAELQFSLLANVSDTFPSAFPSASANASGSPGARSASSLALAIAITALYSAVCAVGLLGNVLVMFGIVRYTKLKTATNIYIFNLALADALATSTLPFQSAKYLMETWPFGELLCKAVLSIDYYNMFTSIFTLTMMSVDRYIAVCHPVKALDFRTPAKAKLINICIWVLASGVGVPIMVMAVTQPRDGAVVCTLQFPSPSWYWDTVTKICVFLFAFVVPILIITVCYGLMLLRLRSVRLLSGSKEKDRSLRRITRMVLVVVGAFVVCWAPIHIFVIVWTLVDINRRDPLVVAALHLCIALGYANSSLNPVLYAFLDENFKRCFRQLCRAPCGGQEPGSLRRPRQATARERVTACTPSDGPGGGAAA
T3 sequence (P97266 whole entry, looked up): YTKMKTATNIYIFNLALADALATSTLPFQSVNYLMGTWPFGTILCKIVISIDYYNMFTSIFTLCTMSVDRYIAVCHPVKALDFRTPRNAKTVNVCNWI
T4 sequence (P32300 whole entry): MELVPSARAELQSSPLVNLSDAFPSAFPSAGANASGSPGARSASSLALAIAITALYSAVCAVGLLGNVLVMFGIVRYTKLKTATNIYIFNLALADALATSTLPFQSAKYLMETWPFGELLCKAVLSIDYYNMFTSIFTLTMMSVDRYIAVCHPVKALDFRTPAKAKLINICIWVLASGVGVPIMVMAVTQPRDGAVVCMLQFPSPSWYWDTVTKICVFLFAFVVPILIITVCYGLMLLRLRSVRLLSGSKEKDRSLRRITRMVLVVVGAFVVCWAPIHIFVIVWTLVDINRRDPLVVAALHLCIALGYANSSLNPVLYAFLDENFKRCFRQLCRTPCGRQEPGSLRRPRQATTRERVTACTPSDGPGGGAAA

On to `NC(=O)[C@H](Cc1ccccc1)NC(=O)[C@@H]1Cc2ccccc2CN1C(=O)[C@@H](N)Cc1ccc(O)cc1` [H--Tyr--Tic--Phe--NH2] (HELM PEPTIDE1{Y.[Tic].F.[am]}$$$$V2.0), for which the Ki in test [1] stood at 624 ± 79 nM. Also, in test [2], the affinity, expressed as Ki, was 12 ± 1.3 nM and the “Ki^μ /Ki^δ (δ-selectivity)” value is 52.0.

`N[C@@H](Cc1ccc(O)cc1)C(=O)N1Cc2ccccc2C[C@H]1C(=O)N[C@@H](Cc1ccccc1)C(=O)O` [H--Tyr--Tic--Phe--OH] (HELM PEPTIDE1{Y.[Tic].F}$$$$V2.0): the “Ki^μ /Ki^δ (δ-selectivity)” value in test [2] is given as 141.

In turn, `N[C@@H](Cc1ccc(O)cc1)C(=O)N1Cc2ccccc2C[C@H]1C(=O)N[C@@H](Cc1ccccc1)C(=O)N[C@@H](Cc1ccc([N+](=O)[O-])cc1)C(=O)O` [H--Tyr--Tic--Phe--Phe(p-NO2)--OH] (HELM PEPTIDE1{Y.[Tic].F.[O=C(O)[C@H](Cc1ccc([N+](=O)[O-])cc1)N[*:1]]}$$$$V2.0) returned a Ki in test [1] of 2890 ± 660 nM. In addition, in test [2], the affinity corresponds to a Ki of 0.703 ± 0.099 nM and the “Ki^μ /Ki^δ (δ-selectivity)” value came to 4110.

For the molecule `NC(=O)[C@H](Cc1ccccc1)NC(=O)[C@H](Cc1ccccc1)NC(=O)[C@@H]1Cc2ccccc2CN1C(=O)[C@@H](N)Cc1ccc(O)cc1` [H--Tyr--Tic--Phe--Phe--NH2] (HELM PEPTIDE1{Y.[Tic].F.F.[am]}$$$$V2.0), in test [3], the IC50 was 1700 ± 220 nM. In test [2], the “Ki^μ /Ki^δ (δ-selectivity)” value is listed as 26.3.

Regarding `NC(=O)[C@H](Cc1c[nH]c2ccccc12)NC(=O)[C@H](Cc1ccccc1)NC(=O)[C@@H]1Cc2ccccc2CN1C(=O)[C@@H](N)Cc1ccc(O)cc1` [H--Tyr--Tic--Phe--Trp--NH2] (HELM PEPTIDE1{Y.[Tic].F.W.[am]}$$$$V2.0), the Ki in test [1] amounted to 312 ± 75 nM. Moreover, in test [2], the Ki amounted to 1.21 ± 0.19 nM and the “Ki^μ /Ki^δ (δ-selectivity)” value worked out at 258.

`N[C@@H](Cc1ccc(O)cc1)C(=O)N1Cc2ccccc2C[C@H]1C(=O)N[C@@H](Cc1c[nH]c2ccccc12)C(=O)N[C@@H](Cc1ccc([N+](=O)[O-])cc1)C(=O)O` [H--Tyr--Tic--Trp--Phe(p-NO2)--OH] (HELM PEPTIDE1{Y.[Tic].W.[O=C(O)[C@H](Cc1ccc([N+](=O)[O-])cc1)N[*:1]]}$$$$V2.0) registered a Ki in test [1] of 1520 ± 42 nM. In test [2], the affinity, expressed as Ki, was 0.33 ± 0.004 nM and the “Ki^μ /Ki^δ (δ-selectivity)” value was 4610.

Regarding `NC(=O)[C@H](Cc1ccccc1)NC(=O)[C@H](Cc1c[nH]c2ccccc12)NC(=O)[C@@H]1Cc2ccccc2CN1C(=O)[C@@H](N)Cc1ccc(O)cc1` [H--Tyr--Tic--Trp--Phe--NH2] (HELM PEPTIDE1{Y.[Tic].W.F.[am]}$$$$V2.0), the Ki in test [1] was determined as 176 ± 21 nM; in test [2] it was 0.248 ± 0.009 nM. The “Ki^μ /Ki^δ (δ-selectivity)” value in test [2] worked out at 709.

`N[C@@H](Cc1ccc(O)cc1)C(=O)N1Cc2ccccc2C[C@H]1C(=O)N[C@@H](Cc1c[nH]c2ccccc12)C(=O)N[C@@H](Cc1ccccc1)C(=O)O` [H--Tyr--Tic--Trp--Phe--OH] (HELM PEPTIDE1{Y.[Tic].W.F}$$$$V2.0) displayed a Ki in test [1] of 1790 ± 380 nM. In test [2], the Ki is 0.301 ± 0.042 nM and the “Ki^μ /Ki^δ (δ-selectivity)” value was found to be 5950.

For `C=CCN(CC=C)[C@@H](Cc1ccc(O)cc1)C(=O)NC(C)(C)C(=O)NC(C)(C)C(=O)N[C@@H](Cc1ccccc1)C(=O)N[C@@H](CC(C)C)C(=O)O` [ICI 174864, N,N--diallyl--Tyr--Aib--Aib--Phe--Leu--OH, reference compound] (HELM PEPTIDE1{[C=CCN(CC=C)[C@@H](Cc1ccc(O)cc1)C(=O)[*:2]].[Aib].[Aib].F.L}$$$$V2.0), the “antagonist potency in the MVD assay compared with the most potent and selective δ antagonists of the patent” value in test [4] turned out to be 20 times less potent. Moreover, the “δ-selectivity compared with the most potent and selective δ antagonists of the patent” value in test [2] (comparison with the patent's best compounds) is 40 times less.

`Oc1ccc2c3c1O[C@H]1c4[nH]c5ccccc5c4C[C@@]4(O)[C@@H](C2)N(CC2CC2)CC[C@]314` [Naltrindole, naltrindole, reference compound]: the “Ke (antagonist properties) in the guinea pig ileum (GPI) assay” value in test [5] was 29 nM. In test [2], the affinity corresponds to a Ki of 0.687 ± 0.1 nM.

The record behind these values is patent US5455230A, “Delta opioid receptor antagonists and their use as analgesic agents” (Aktiebolaget Astra, priority 1993, dated 1995).
